Laboratory results published in patent US20090018111A1, “Novel Antimicrobial Medicament” (priority 2004, published 2009).
Where two headings read alike, the source gives them in different places.

Columns and labels:
[1] = test system: E. coli ML1410 RP4; assay: microbe, parasite or virus in culture; format: cell-based, Escherichia coli; conditions: Escherichia coli
Protocol: (§1) The antibacterial activities were tested against various 18 bacteria (27 standard strains) which are representative bacteria caused clinically infectious disease (Staphylococcus aureus 3 strains, Staphylococcus epidermidis 1 strain, Micrococcus luteus 1 strain, Streptococcus pyogenes 1 strain, Enterococcus faecalis 1 strain, Enterococcus faecium 1 strain, Bacillus subtilis 1 strain, Escherichia coli 3 strains, Klebsiella pneumoniae 1 strain, Proteus mirabilis 1 strain, Proteus vulgaris 2 strains, Pseudomonas aeruginosa 3 strains, Serratia marcescens 2 strains, Enterobacter aerogenes 1 strain, Stenotrophomonas maltophilia 1 strain, Enterobacter cloacae 1 strain, Citrobacter freundii 1 strain, Moraxella catarrhalis 2 strains).
(§2) According to the standard method of Japan Chemotherapeutic Society (Chemotherapy, vol. […], p 76-79 (1981)) the test was carried out using the agar dilution method. After dissolving test samples in distilled water, agar medium containing the test samples was prepared in such a manner that the final concentration became twice serial dilution by pouring serially diluted combination drug solution or a single drug solution into agar medium. As agar medium was used Mueller Hinton Agar medium (MHA). Then, each strain was cultivated over night at 37° C. in an incubator and suspended in buffered saline solution with gelatin (BSG) in the concentration of about 10^6 CFU/ml. The suspension (about 5 μl) containing test strains was inoculated to the medium containing the test samples by Micro Planter.
(§3) When the sample is subjected to sensitivity test, this mixed solution was diluted by twice serial dilution method.
(§4) Furthermore, when the drug is solely used, each test sample was used as it is, and diluted by twice serial dilution method from the maximum concentration to the minimum concentration.
(§5) FIC index based on MIC value was calculated. […] Namely, when FIC index calculated by the following formula is equal or less than 1, the enhanced effect of the combination drug in said ratio is considered as positive. When FIC index is over 1, the enhanced effect of the combination drug in said ratio is considered as negative.
(§6) Formula of FIC index: FIC index=(MIC of Drug A in combination/MIC of Drug A alone)+(MIC of Drug B in combination/MIC of Drug B alone) N.C. in tables means being not calculated.

[2] = test system: E. faecium ATCC19434; assay: Sensitivity test (agar dilution); format: cell-based, Enterococcus faecium; conditions: for MIC: Enterococcus faecium
Protocol: as §1, §2, §3, §4, §5, §6

[3] = test system: M. catarrhalis ATCC8176; assay: Sensitivity test (agar dilution); format: cell-based, Moraxella catarrhalis; conditions: Moraxella catarrhalis
Protocol: as §1, §2, §3, §4, §5, §6

[4] = test system: M. catarrhalis ATCC25238; assay: Sensitivity test (agar dilution); format: cell-based, Moraxella catarrhalis; conditions: Moraxella catarrhalis
Protocol: as §1, §2, §3, §4, §5, §6

[5] = test system: S. marcescens X 100; assay: Sensitivity test (agar dilution); format: cell-based, Serratia marcescens
Protocol: as §1, §2, §3, §4, §5, §6

[6] = test system: S. marcescens GN6473; assay: Sensitivity test (agar dilution); format: cell-based, Serratia marcescens; conditions: Serratia marcescens
Protocol: as §1, §2, §3, §4, §5, §6

[7] = test system: P. mirabiris GN2425; assay: Sensitivity test (agar dilution); format: cell-based, Proteus mirabilis; conditions: Proteus mirabilis
Protocol: as §1, §2, §3, §4, §5, §6

C[C@H]1C=C(c2csc(SC3=C(C(=O)O)N4C(=O)[C@H]([C@@H](C)O)[C@H]4[C@H]3C)n2)CN1 [SM, (4R,5S,6S)-6-[(1R)-1-Hydroxyethyl]-4-methyl-3-({4-[(5S)-5-methyl-2,5-dihydro-1H-pyrrol-3-yl]-1,3-thiazol-2-yl}sulfanyl)-7-oxo-1-azabicyclo[3.2.0]hept-2-ene-2-carboxylic acid]
0.5 µg/mL: MIC ([1]; ML1410RP4, alone) | MIC ([1]; ML1410RP4, read-out: MIC alone, drug alone, E. coli ML1410 RP4) | MIC ([1]; ML1410RP4, read-out: MIC concomitant, Concomitant (PIPC:SM = 1:1), E. coli ML1410 RP4) | MIC ([5]; Serratia marcescens, X100, alone, read-out: MIC) | MIC ([6]; GN6473, Concomitant (CAZ:SM = 1:1), S. marcescens GN6473, read-out: MIC concomitant)
0.125 µg/mL: MIC ([1]; ML1410RP4, Concomitant (IPM:SM = 1:1)) | MIC ([1]; ML1410RP4, read-out: MIC concomitant, Concomitant (BIPM:SM = 1:1), E. coli ML1410 RP4) | MIC ([1]; ML1410RP4, read-out: MIC concomitant, Concomitant (CAZ:SM = 1:1), E. coli ML1410 RP4) | MIC ([1]; ML1410RP4, read-out: MIC concomitant, Concomitant (PAPM:SM = 1:1), E. coli ML1410 RP4) | MIC ([2]; ATCC19434, Concomitant (AZT:SM = 1:1), E. faecium ATCC19434, read-out: MIC concomitant) | MIC ([2]; ATCC19434, Concomitant (CAZ:SM = 1:1), E. faecium ATCC19434, read-out: MIC concomitant) | MIC ([2]; ATCC19434, Concomitant (IPM:SM = 1:1), read-out: MIC) | MIC ([2]; ATCC19434, Concomitant (MEPM:SM = 1:1), read-out: MIC) | MIC ([2]; ATCC19434, Concomitant (MEPM:SM = 1:4), read-out: MIC) | MIC ([2]; ATCC19434, Concomitant (PAPM:SM = 1:1), E. faecium ATCC19434, read-out: MIC concomitant) | MIC ([2]; ATCC19434, Concomitant (PIPC:SM = 1:1), E. faecium ATCC19434, read-out: MIC concomitant) | MIC alone ([2]; drug alone, E. faecium ATCC19434) | MIC ([5]; Serratia marcescens, X100, Concomitant (CAZ:SM = 1:1), S. marcescens X 100, read-out: MIC concomitant) | MIC ([5]; Serratia marcescens, X100, Concomitant (IPM:SM = 1:1), read-out: MIC) | MIC ([5]; Serratia marcescens, X100, Concomitant (PAPM:SM = 1:1), S. marcescens X 100, read-out: MIC concomitant) | MIC ([6]; GN6473, Concomitant (BIPM:SM = 1:1), S. marcescens GN6473, read-out: MIC concomitant) | MIC ([6]; GN6473, Concomitant (MEPM:SM = 1:4), read-out: MIC) | MIC ([7]; GN2425, alone) | MIC ([7]; GN2425, read-out: MIC alone, drug alone, P. mirabiris GN2425)
1 µg/mL: MIC ([5]; Serratia marcescens, X100, drug alone, S. marcescens X 100, read-out: MIC alone) | MIC ([5]; alone) | MIC ([6]; GN6473, Concomitant (CPFX:SM = 1:1), S. marcescens GN6473, read-out: MIC concomitant)
0.031 µg/mL: MIC ([1]; ML1410RP4, read-out: MIC concomitant, Concomitant (DRPM:SM = 1:1), E. coli ML1410 RP4) | MIC ([5]; Serratia marcescens, X100, Concomitant (AZT:SM = 1:1), S. marcescens X 100, read-out: MIC concomitant) | MIC ([5]; Serratia marcescens, X100, Concomitant (DRPM:SM = 1:1), S. marcescens X 100, read-out: MIC concomitant) | MIC ([6]; GN6473, Concomitant (MEPM:SM = 1:1), read-out: MIC)
0.25 µg/mL: MIC ([1]; ML1410RP4, read-out: MIC concomitant, Concomitant (CPFX:SM = 1:1), E. coli ML1410 RP4) | MIC ([2]; ATCC19434, Concomitant (BIPM:SM = 1:1), E. faecium ATCC19434, read-out: MIC concomitant) | MIC ([2]; ATCC19434, Concomitant (CPFX:SM = 1:1), E. faecium ATCC19434, read-out: MIC concomitant) | MIC ([2]; ATCC19434, Concomitant (DRPM:SM = 1:1), E. faecium ATCC19434, read-out: MIC concomitant) | MIC ([2]; ATCC19434, Concomitant (MEPM:SM = 1:2), read-out: MIC) | MIC ([2]; ATCC19434, Concomitant drug (MEPM:SM = 2:1), read-out: MIC) | MIC ([2]; ATCC19434, alone, read-out: MIC) | MIC ([2]; ATCC19434, drug alone, E. faecium ATCC19434, read-out: MIC alone) | MIC ([5]; Serratia marcescens, X100, Concomitant (PIPC:SM = 1:1), S. marcescens X 100, read-out: MIC concomitant) | MIC ([6]; GN6473, Concomitant (AZT:SM = 1:1), S. marcescens GN6473, read-out: MIC concomitant) | MIC ([6]; GN6473, Concomitant (IPM:SM = 1:1), read-out: MIC) | MIC ([6]; GN6473, Concomitant (PAPM:SM = 1:1), S. marcescens GN6473, read-out: MIC concomitant) | MIC ([7]; GN2425, Concomitant (IPM:SM = 1:1))
≤ 0.063 µg/mL: MIC ([1]; ML1410RP4, Concomitant (MEPM:SM = 1:4)) | MIC ([3]; ATCC8176, Concomitant (MEPM:SM = 1:4), read-out: MIC) | MIC ([4]; ATCC25238, Concomitant (MEPM:SM = 1:4), read-out: MIC) | MIC ([5]; Serratia marcescens, X100, Concomitant (MEPM:SM = 1:4), read-out: MIC) | MIC ([7]; GN2425, Concomitant (MEPM:SM = 1:4))
≤ 0.031 µg/mL: MIC ([1]; ML1410RP4, Concomitant (MEPM:SM = 1:2)) | MIC ([3]; ATCC8176, Concomitant (MEPM:SM = 1:2), read-out: MIC) | MIC ([4]; ATCC25238, Concomitant (MEPM:SM = 1:2), read-out: MIC) | MIC ([5]; Serratia marcescens, X100, Concomitant (MEPM:SM = 1:2), read-out: MIC)
0.016 µg/mL: MIC ([5]; Serratia marcescens, X100, Concomitant drug (MEPM:SM = 2:1), read-out: MIC) | MIC ([6]; GN6473, Concomitant drug (MEPM:SM = 2:1), read-out: MIC) | MIC ([7]; GN2425, Concomitant drug (MEPM:SM = 2:1))
≤ 0.002 µg/mL: MIC ([3]; ATCC8176, Concomitant (AZT:SM = 1:1), M. catarrhalis ATCC8176, read-out: MIC concomitant) | MIC ([3]; ATCC8176, Concomitant (BIPM:SM = 1:1), M. catarrhalis ATCC8176, read-out: MIC concomitant) | MIC ([3]; ATCC8176, Concomitant (CAZ:SM = 1:1), M. catarrhalis ATCC8176, read-out: MIC concomitant) | MIC ([3]; ATCC8176, Concomitant (CPFX:SM = 1:1), M. catarrhalis ATCC8176, read-out: MIC concomitant) | MIC ([3]; ATCC8176, Concomitant (DRPM:SM = 1:1), M. catarrhalis ATCC8176, read-out: MIC concomitant) | MIC ([3]; ATCC8176, Concomitant (IPM:SM = 1:1), read-out: MIC) | MIC ([3]; ATCC8176, Concomitant (PAPM:SM = 1:1), M. catarrhalis ATCC8176, read-out: MIC concomitant) | MIC ([3]; ATCC8176, Concomitant (PIPC:SM = 1:1), M. catarrhalis ATCC8176, read-out: MIC concomitant) | MIC ([3]; ATCC8176, drug alone, M. catarrhalis ATCC8176, read-out: MIC alone) | MIC ([4]; ATCC25238, Concomitant (AZT:SM = 1:1), M. catarrhalis ATCC25238, read-out: MIC concomitant) | MIC ([4]; ATCC25238, Concomitant (BIPM:SM = 1:1), M. catarrhalis ATCC25238, read-out: MIC concomitant) | MIC ([4]; ATCC25238, Concomitant (CAZ:SM = 1:1), M. catarrhalis ATCC25238, read-out: MIC concomitant) | MIC ([4]; ATCC25238, Concomitant (CPFX:SM = 1:1), M. catarrhalis ATCC25238, read-out: MIC concomitant) | MIC ([4]; ATCC25238, Concomitant (DRPM:SM = 1:1), M. catarrhalis ATCC25238, read-out: MIC concomitant) | MIC ([4]; ATCC25238, Concomitant (IPM:SM = 1:1), read-out: MIC) | MIC ([4]; ATCC25238, Concomitant (PAPM:SM = 1:1), M. catarrhalis ATCC25238, read-out: MIC concomitant) | MIC ([4]; ATCC25238, Concomitant (PIPC:SM = 1:1), M. catarrhalis ATCC25238, read-out: MIC concomitant) | MIC ([4]; ATCC25238, drug alone, M. catarrhalis ATCC25238, read-out: MIC alone)
≤ 0.016 µg/mL: MIC ([1]; ML1410RP4, Concomitant (MEPM:SM = 1:1)) | MIC ([3]; ATCC8176, Concomitant (MEPM:SM = 1:1), read-out: MIC) | MIC ([4]; ATCC25238, Concomitant (MEPM:SM = 1:1), read-out: MIC) | MIC ([5]; Serratia marcescens, X100, Concomitant (MEPM:SM = 1:1), read-out: MIC) | MIC ([7]; GN2425, Concomitant (MEPM:SM = 1:1))
4 µg/mL: MIC ([6]; GN6473, Concomitant (PIPC:SM = 1:1), S. marcescens GN6473, read-out: MIC concomitant) | MIC ([6]; GN6473, alone, read-out: MIC) | MIC ([6]; GN6473, drug alone, S. marcescens GN6473, read-out: MIC alone)
≤ 0.008 µg/mL: MIC ([1]; ML1410RP4, Concomitant drug (MEPM:SM = 2:1)) | MIC ([3]; ATCC8176, Concomitant drug (MEPM:SM = 2:1), read-out: MIC) | MIC ([4]; ATCC25238, Concomitant drug (MEPM:SM = 2:1), read-out: MIC)
0.063 µg/mL: MIC ([1]; ML1410RP4, read-out: MIC concomitant, Concomitant (AZT:SM = 1:1), E. coli ML1410 RP4) | MIC ([5]; Serratia marcescens, X100, Concomitant (BIPM:SM = 1:1), S. marcescens X 100, read-out: MIC concomitant) | MIC ([5]; Serratia marcescens, X100, Concomitant (CPFX:SM = 1:1), S. marcescens X 100, read-out: MIC concomitant) | MIC ([6]; GN6473, Concomitant (DRPM:SM = 1:1), S. marcescens GN6473, read-out: MIC concomitant) | MIC ([6]; GN6473, Concomitant (MEPM:SM = 1:2), read-out: MIC) | MIC ([7]; GN2425, Concomitant (MEPM:SM = 1:2))
